{
  "source": "paper PMC11601558",
  "about": "“SLC6A19 inhibition facilitates urinary neutral amino acid excretion and lowers plasma phenylalanine” (JCI Insight, 2024)",
  "target": "T1, mouse SLC6A19 (Mus musculus, UniProt Q9D687)",
  "T1 construct": "expressed in transfected cells",
  "T1 sequence (Q9D687 1-634)": "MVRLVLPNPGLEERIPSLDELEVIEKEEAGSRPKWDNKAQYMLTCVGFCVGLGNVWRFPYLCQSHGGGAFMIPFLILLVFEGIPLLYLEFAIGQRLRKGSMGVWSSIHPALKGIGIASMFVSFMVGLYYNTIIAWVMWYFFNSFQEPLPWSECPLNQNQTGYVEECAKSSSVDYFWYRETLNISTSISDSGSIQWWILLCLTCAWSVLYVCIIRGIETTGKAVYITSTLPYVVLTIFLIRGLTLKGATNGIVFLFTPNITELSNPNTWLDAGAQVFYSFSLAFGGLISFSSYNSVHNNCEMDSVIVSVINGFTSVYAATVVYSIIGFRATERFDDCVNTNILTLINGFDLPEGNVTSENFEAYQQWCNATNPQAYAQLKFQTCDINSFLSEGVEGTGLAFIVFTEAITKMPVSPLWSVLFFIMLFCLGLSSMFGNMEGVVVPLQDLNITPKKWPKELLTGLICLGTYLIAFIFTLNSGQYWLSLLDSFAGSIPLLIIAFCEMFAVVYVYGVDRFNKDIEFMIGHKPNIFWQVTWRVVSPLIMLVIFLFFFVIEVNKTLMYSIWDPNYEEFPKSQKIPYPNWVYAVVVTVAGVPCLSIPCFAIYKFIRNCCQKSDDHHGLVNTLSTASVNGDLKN",
  "T1 sequence (Q9ESG4 15-222 partner)": "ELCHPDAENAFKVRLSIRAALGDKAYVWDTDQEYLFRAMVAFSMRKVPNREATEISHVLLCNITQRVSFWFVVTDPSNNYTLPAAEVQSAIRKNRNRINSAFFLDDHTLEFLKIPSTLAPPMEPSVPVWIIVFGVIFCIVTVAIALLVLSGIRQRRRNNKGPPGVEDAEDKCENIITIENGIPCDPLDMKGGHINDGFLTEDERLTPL",
  "assay": "Isoleucine transport assay, Flp-In T-REx 293 cells coexpressing mouse SLC6A19 and TMEM27",
  "format": "cell-based",
  "conditions": "for isoleucine transport, Mouse (Fig 1c curve point) / isoleucine transport, Mouse (Fig 1f curve point): technical replicates; for pIC50: read-out: IC50 against mouse SLC6A19, isoleucine transport assay",
  "method": "Flp-In T-REx 293 cells (Thermo Fisher Scientific) were engineered to coexpress C-terminally V5-tagged human or mouse SLC6A19 under the control of a tetracycline-inducible promoter and human or mouse myc-DDK-tagged TMEM27 under the control of a constitutively active promoter. Cells were maintained in DMEM/F12 medium supplemented with 10% FBS, 100 units/mL penicillin, 100 μg/mL streptomycin, 200 μg/mL hygromycin, 10 μg/mL blasticidin, and 300 μg/mL geneticin (all from Thermo Fisher Scientific) at 37°C and 5% CO2.\nFlp-In T-REx 293 cells stably coexpressing human or mouse SLC6A19 and TMEM27 were plated in 384-well plates in the presence of 1 μg/mL tetracyclin (Sigma-Aldrich) to induce the expression of SLC6A19. After 24 hours, cells were washed with live cell imaging solution (LCIS, Thermo Fisher Scientific) before JN-170 or JNT-517 were added to cells in 10-point concentration response curves in 0.5% DMSO in Krebs buffer (140 mM NaCl, 4.7 mM KCl, 2.5 mM CaCl2, 1.2 mM MgCl2, 11 mM HEPES, 10 mM glucose, pH 7.4). Cells were incubated with compounds for 1 hour at room temperature before 1 mM ^13C6,^15N1-labeled L-isoleucine (Cambridge Isotope Laboratories) was added as a transport substrate. After 20 minutes incubation at room temperature, cells were washed and lysed in H2O with 15 μM internal standard D-Leucine-D10 (CDN Isotopes) for 1–2 hours. A standard curve of ^13C6,^15N1-L-isoleucine was added to each plate following cell lysis. Plates were centrifuged at 3,700g to remove cell debris, and supernatant was diluted in 2 steps to a final 1:10 dilution in acetonitrile/0.1% formic acid. Sample desalting was performed on a high throughput RapidFire-365 (Agilent) using a hydrophilic interaction liquid chromatography (HILIC) column. A quantitative time-of-flight (Q-ToF) mass spectrometer (Agilent) was used to detect analytes. Agilent MassHunter quantitative analysis for time of flight was used as the integration software for measuring area under the peak for both ^13C6,^15N1-L-isoleucine and D-Leucine-D10 internal standard.\nIC50 values for transport inhibition in cells overexpressing SLC6A19 and TMEM27 were calculated using a 4-parameter logistic regression in Collaborative Drug Discovery (CDD). Reported IC50 values are geometric means of 4–6 independent experiments. For postmortem intestinal transport assays, single outliers of quadruplicate replicates were excluded from the calculation if a signal value’s distance to the mean exceeded 35% of the signal average. The IC50 values of individual experiments were calculated with a 3- or 4-parameter logistic regression using GraphPad Prism 9. The reported IC50 value represents the geometric mean of n = 5 experiments from 3 individual donors. Statistical comparison of urinary Phe excretion in Pah^enu2 mice treated with vehicle or JN-170 was conducted using 1-way analysis of variance (ANOVA) with Tukey’s post hoc comparison. Statistical analysis of baseline-adjusted plasma Phe in mice treated with vehicle or JN-170 was determined by 2-way ANOVA with Dunnett’s post hoc comparison. All statistical analyses were performed using GraphPad Prism 9. For clinical studies, group sizes were not determined based on statistical power calculations. Statistical significance of pharmacodynamic results was not assessed. Values are reported as mean (urinary Phe excretion, T1/2, Cl/F), geometric mean (Cmax/D, AUC0-inf/D), or median (Tmax).",
  "note": "pIC50: −log10 of the molar value. Values joined by “and” are separate entries in the source; they are usually repeats but may differ in a detail not shown here. Identical values can stand only once. Like-named read-outs stand apart in the source and are kept apart here.",
  "data": [
    {"smiles": "NC(=O)N1CCC[C@@H](N(C(=O)NCc2ccc(OC(F)(F)F)cc2F)C2CC2)C1", "note": "[JNT-517]", "values": [
      {"measurement": "isoleucine transport, Mouse (Fig 1c curve point)", "setting": "0.000722 uM", "result": "87.6 and 103"},
      {"measurement": "isoleucine transport, Mouse (Fig 1c curve point)", "setting": "0.00219 uM", "result": "108 and 105"},
      {"measurement": "isoleucine transport, Mouse (Fig 1c curve point)", "setting": "0.00438 uM", "result": "100 and 89.5"},
      {"measurement": "isoleucine transport, Mouse (Fig 1c curve point)", "setting": "0.0153125 uM", "result": "85.6 and 104"},
      {"measurement": "isoleucine transport, Mouse (Fig 1c curve point)", "setting": "0.048125 uM", "result": "88.3 and 96.6"},
      {"measurement": "isoleucine transport, Mouse (Fig 1c curve point)", "setting": "0.144375 uM", "result": "78.2 and 95.8"},
      {"measurement": "isoleucine transport, Mouse (Fig 1c curve point)", "setting": "0.4375 uM", "result": "86.6 and 108"},
      {"measurement": "isoleucine transport, Mouse (Fig 1c curve point)", "setting": "1.3125 uM", "result": "93.2 and 97.6"},
      {"measurement": "isoleucine transport, Mouse (Fig 1c curve point)", "setting": "3.9375 uM", "result": "89 and 86.1"},
      {"measurement": "isoleucine transport, Mouse (Fig 1c curve point)", "setting": "11.8125 uM", "result": "86 and 88.2"},
      {"measurement": "pIC50", "result": "< 4.93"}
    ]},
    {"smiles": "N#Cc1ccc(-c2noc([C@]3(C(F)(F)F)CCN(C(=O)NCCC4(N)CC4)C3)n2)cc1", "note": "[JN-170]", "values": [
      {"measurement": "isoleucine transport, Mouse (Fig 1f curve point)", "setting": "0.000722 uM", "result": "84.1 and 94.9"},
      {"measurement": "isoleucine transport, Mouse (Fig 1f curve point)", "setting": "0.00219 uM", "result": "91.4 and 88.7"},
      {"measurement": "isoleucine transport, Mouse (Fig 1f curve point)", "setting": "0.00438 uM", "result": "84.6 and 91.9"},
      {"measurement": "isoleucine transport, Mouse (Fig 1f curve point)", "setting": "0.015313 uM", "result": "82.4 and 86.6"},
      {"measurement": "isoleucine transport, Mouse (Fig 1f curve point)", "setting": "0.048125 uM", "result": "65.9 and 67.7"},
      {"measurement": "isoleucine transport, Mouse (Fig 1f curve point)", "setting": "0.144375 uM", "result": "32.3 and 28.6"},
      {"measurement": "isoleucine transport, Mouse (Fig 1f curve point)", "setting": "0.4375 uM", "result": "14.6 and 12.2"},
      {"measurement": "isoleucine transport, Mouse (Fig 1f curve point)", "setting": "1.3125 uM", "result": "-0.346 and -1.17"},
      {"measurement": "isoleucine transport, Mouse (Fig 1f curve point)", "setting": "3.9375 uM", "result": "-4.28 and -6.91"},
      {"measurement": "isoleucine transport, Mouse (Fig 1f curve point)", "setting": "11.8125 uM", "result": "-7.48 and -5.64"},
      {"measurement": "pIC50", "setting": "geometric mean n = 6", "result": 7.01}
    ]}
  ]
}
